Experimental data as given in ChEMBL document CHEMBL1201862, “PubChem BioAssay data set” (2004).
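Dose response: 5 concentrations. Exposure: 48 h. Format: 96-well plates. Endpoint: linear interpolation; highest concentration if not reached. Abbreviation: GI50, concentration required for 50% inhibition of growth.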 The source made the active and inactive calls. Rule as the data show it: active = GI50 up to about 1.1 µM and inactive = higher.

What was measured:
Assay in all cases: NCI anticancer screen, dose series, 48 h
Malme-3M = tested on: Malme-3M
MDA-MB-231 = tested on: MDA-MB-231
IGROV-1 = tested on: IGROV-1
NCI-H226 = tested on: NCI-H226
MCF7 = tested on: MCF7
HOP-62 = tested on: HOP-62
U-251 = tested on: U-251
OVCAR-5 = tested on: OVCAR-5
SK-MEL-5 = tested on: SK-MEL-5
TK-10 = tested on: TK-10
ACHN = tested on: ACHN
SF-539 = tested on: SF-539
UACC-62 = tested on: UACC-62
HCT-15 = tested on: HCT-15
A549 = tested on: A549
CAKI-1 = tested on: CAKI-1
MOLT-4 = tested on: MOLT-4
SNB-75 = tested on: SNB-75
RPMI-8226 = tested on: RPMI-8226
SR = tested on: SR

OCCOCn1nncc1Cn1ncc2c(O)ncnc21
GI50 (Malme-3M): > 100 µM (inactive) | GI50 (MDA-MB-231): > 100 µM (inactive) | GI50 (IGROV-1): > 100 µM (inactive) | GI50 (NCI-H226): > 100 µM (inactive) | GI50 (MCF7): 48.8 µM (inactive) | GI50 (HOP-62): > 100 µM (inactive) | GI50 (U-251): > 100 µM (inactive) | GI50 (OVCAR-5): > 100 µM (inactive) | GI50 (SK-MEL-5): 47.5 µM (inactive) | GI50 (TK-10): > 100 µM (inactive) | GI50 (ACHN): > 100 µM (inactive) | GI50 (SF-539): > 100 µM (inactive) | GI50 (UACC-62): > 100 µM (inactive) | GI50 (HCT-15): > 100 µM | GI50 (A549): 97.9 µM (inactive) | GI50 (CAKI-1): > 100 µM (inactive) | GI50 (MOLT-4): 40 µM (inactive) | GI50 (SNB-75): > 100 µM (inactive)

O=C1N/N=C\Nc2ccc(cc2)S(=O)(=O)c2ccc(cc2)/N=C\NNC1=O
GI50 (MDA-MB-231): > 100 µM (inactive) | GI50 (IGROV-1): > 100 µM (inactive) | GI50 (NCI-H226): > 100 µM (inactive) | GI50 (MCF7): > 100 µM (inactive) | GI50 (HOP-62): > 100 µM (inactive) | GI50 (U-251): > 100 µM (inactive) | GI50 (OVCAR-5): > 100 µM (inactive) | GI50 (SK-MEL-5): > 100 µM (inactive) | GI50 (TK-10): > 100 µM (inactive) | GI50 (ACHN): > 100 µM (inactive) | GI50 (SF-539): > 100 µM (inactive) | GI50 (UACC-62): > 100 µM (inactive) | GI50 (HCT-15): > 100 µM | GI50 (A549): > 100 µM (inactive) | GI50 (CAKI-1): > 100 µM (inactive) | GI50 (MOLT-4): > 100 µM (inactive)

Cc1cccc(Nc2cnc(N)nc2N)c1
GI50 (Malme-3M): > 100 µM (inactive) | GI50 (MDA-MB-231): > 100 µM (inactive) | GI50 (IGROV-1): > 100 µM (inactive) | GI50 (NCI-H226): > 100 µM (inactive) | GI50 (MCF7): > 100 µM (inactive) | GI50 (HOP-62): > 100 µM (inactive) | GI50 (U-251): > 100 µM (inactive) | GI50 (SK-MEL-5): > 100 µM (inactive) | GI50 (RPMI-8226): > 100 µM (inactive) | GI50 (TK-10): > 100 µM (inactive) | GI50 (ACHN): > 100 µM (inactive) | GI50 (SF-539): > 100 µM (inactive) | GI50 (UACC-62): > 100 µM (inactive) | GI50 (HCT-15): > 100 µM | GI50 (A549): > 100 µM (inactive) | GI50 (CAKI-1): > 100 µM (inactive) | GI50 (MOLT-4): > 100 µM (inactive) | GI50 (SNB-75): 83 µM (inactive)

COC(=O)[C@@H]1[C@@H](c2cccc(Cl)c2)[C@H](C(=O)OC)C2(C[C@@]1(C)O)NCCS2 (stereo partly drawn)
GI50 (Malme-3M): > 100 µM (inactive) | GI50 (MDA-MB-231): 64.7 µM (inactive) | GI50 (IGROV-1): 62.5 µM (inactive) | GI50 (NCI-H226): > 100 µM (inactive) | GI50 (MCF7): 56.1 µM (inactive) | GI50 (HOP-62): 92.3 µM (inactive) | GI50 (U-251): > 100 µM (inactive) | GI50 (OVCAR-5): > 100 µM (inactive) | GI50 (SK-MEL-5): 44.9 µM (inactive) | GI50 (TK-10): > 100 µM (inactive) | GI50 (ACHN): > 100 µM (inactive) | GI50 (SF-539): > 100 µM (inactive) | GI50 (UACC-62): 73.5 µM (inactive) | GI50 (HCT-15): 82.6 µM | GI50 (A549): 55 µM (inactive) | GI50 (CAKI-1): > 100 µM (inactive) | GI50 (MOLT-4): 0.57 µM (active) | GI50 (SNB-75): 35.5 µM (inactive)

COc1cc(C(=O)N(C(=S)OC23CC4CC(CC(C4)C2)C3)c2ccccc2)cc(OC)c1OC
GI50 (Malme-3M): 29.1 µM (inactive) | GI50 (MDA-MB-231): 33.4 µM (inactive) | GI50 (NCI-H226): 21.5 µM (inactive) | GI50 (MCF7): 29.4 µM (inactive) | GI50 (HOP-62): 43.7 µM (inactive) | GI50 (U-251): 19 µM (inactive) | GI50 (OVCAR-5): 26.5 µM (inactive) | GI50 (SK-MEL-5): 16.1 µM (inactive) | GI50 (TK-10): 42.8 µM (inactive) | GI50 (ACHN): 29.6 µM (inactive) | GI50 (SF-539): 31.3 µM (inactive) | GI50 (UACC-62): 22 µM (inactive) | GI50 (HCT-15): 26.5 µM | GI50 (A549): 26.1 µM (inactive) | GI50 (CAKI-1): 31.3 µM (inactive) | GI50 (MOLT-4): 2.82 µM (inactive) | GI50 (SNB-75): 66.1 µM (inactive)

Cc1ccc(C(C2C(=O)N(C)C(=O)N(C)C2=O)C(F)(F)C(=O)N(C)C)cc1 (stereo not drawn)
GI50 (Malme-3M): > 100 µM (inactive) | GI50 (MDA-MB-231): > 100 µM (inactive) | GI50 (NCI-H226): > 100 µM (inactive) | GI50 (MCF7): > 100 µM (inactive) | GI50 (HOP-62): > 100 µM (inactive) | GI50 (U-251): > 100 µM (inactive) | GI50 (OVCAR-5): > 100 µM (inactive) | GI50 (SK-MEL-5): > 100 µM (inactive) | GI50 (RPMI-8226): > 100 µM (inactive) | GI50 (TK-10): > 100 µM (inactive) | GI50 (ACHN): > 100 µM (inactive) | GI50 (SF-539): 45.3 µM (inactive) | GI50 (UACC-62): > 100 µM (inactive) | GI50 (HCT-15): > 100 µM | GI50 (A549): > 100 µM (inactive) | GI50 (CAKI-1): > 100 µM (inactive) | GI50 (SNB-75): > 100 µM (inactive)

COC(=O)[C@@H](NC(=O)N(CCC#N)CCCN(C(=O)N[C@H](Cc1ccccc1)C(=O)OC)c1ccccc1)C(C)C
GI50 (Malme-3M): 28.1 µM (inactive) | GI50 (MDA-MB-231): > 100 µM (inactive) | GI50 (IGROV-1): 59.3 µM (inactive) | GI50 (NCI-H226): > 100 µM (inactive) | GI50 (MCF7): > 100 µM (inactive) | GI50 (HOP-62): > 100 µM (inactive) | GI50 (U-251): > 100 µM (inactive) | GI50 (OVCAR-5): > 100 µM (inactive) | GI50 (SK-MEL-5): 62.2 µM (inactive) | GI50 (RPMI-8226): 25.1 µM (inactive) | GI50 (TK-10): > 100 µM (inactive) | GI50 (ACHN): 85.5 µM (inactive) | GI50 (SF-539): > 100 µM (inactive) | GI50 (UACC-62): 33.3 µM (inactive) | GI50 (HCT-15): 86.3 µM | GI50 (A549): > 100 µM (inactive) | GI50 (CAKI-1): > 100 µM (inactive) | GI50 (MOLT-4): 23 µM (inactive) | GI50 (SNB-75): > 100 µM (inactive)

CC1(C)CN(CC(=O)O)CC(Cc2ccc(OCC(=O)O)cc2)N(CC(=O)O)CC(C)(C)SS1 (stereo not drawn)
GI50 (Malme-3M): > 100 µM (inactive) | GI50 (MDA-MB-231): > 100 µM (inactive) | GI50 (IGROV-1): > 100 µM (inactive) | GI50 (NCI-H226): > 100 µM (inactive) | GI50 (MCF7): > 100 µM (inactive) | GI50 (HOP-62): > 100 µM (inactive) | GI50 (U-251): > 100 µM (inactive) | GI50 (OVCAR-5): > 100 µM (inactive) | GI50 (SK-MEL-5): > 100 µM (inactive) | GI50 (RPMI-8226): > 100 µM (inactive) | GI50 (TK-10): > 100 µM (inactive) | GI50 (ACHN): > 100 µM (inactive) | GI50 (SF-539): > 100 µM (inactive) | GI50 (UACC-62): > 100 µM (inactive) | GI50 (HCT-15): > 100 µM | GI50 (A549): > 100 µM (inactive) | GI50 (CAKI-1): > 100 µM (inactive) | GI50 (MOLT-4): > 100 µM (inactive) | GI50 (SNB-75): > 100 µM (inactive)

Cc1c2c(OCCN3CCCCC3)nn(C)c(=O)c2c(C)n1-c1ccccc1
GI50 (Malme-3M): 19.1 µM (inactive) | GI50 (MDA-MB-231): 32.4 µM (inactive) | GI50 (IGROV-1): 70.5 µM (inactive) | GI50 (NCI-H226): 38 µM (inactive) | GI50 (MCF7): 25.5 µM (inactive) | GI50 (HOP-62): > 100 µM (inactive) | GI50 (U-251): 49.2 µM (inactive) | GI50 (OVCAR-5): > 100 µM (inactive) | GI50 (SK-MEL-5): 16.7 µM (inactive) | GI50 (RPMI-8226): 23.6 µM (inactive) | GI50 (TK-10): 67.5 µM (inactive) | GI50 (ACHN): 28.5 µM (inactive) | GI50 (SF-539): 29.4 µM (inactive) | GI50 (UACC-62): 25.8 µM (inactive) | GI50 (HCT-15): 32 µM | GI50 (A549): 43.6 µM (inactive) | GI50 (CAKI-1): 32.9 µM (inactive) | GI50 (MOLT-4): 29.5 µM (inactive) | GI50 (SNB-75): 19.5 µM (inactive)

CCOC(=O)CCC(NC(=O)c1ccc(N2CCN(c3c(C)nc(N)nc3N)CC2)cc1)C(=O)OCC (stereo not drawn)
GI50 (Malme-3M): > 100 µM (inactive) | GI50 (MDA-MB-231): > 100 µM (inactive) | GI50 (IGROV-1): 0.113 µM (active) | GI50 (NCI-H226): 0.902 µM (active) | GI50 (MCF7): 0.685 µM (active) | GI50 (U-251): 0.0845 µM (active) | GI50 (OVCAR-5): > 100 µM (inactive) | GI50 (SK-MEL-5): 0.0923 µM (active) | GI50 (RPMI-8226): 1.76 µM (inactive) | GI50 (TK-10): > 100 µM (inactive) | GI50 (ACHN): 0.122 µM (active) | GI50 (SF-539): 16.2 µM (inactive) | GI50 (UACC-62): 0.165 µM (active) | GI50 (HCT-15): 3.36 µM | GI50 (A549): 0.213 µM (active) | GI50 (CAKI-1): 2.52 µM (inactive) | GI50 (MOLT-4): 0.186 µM (active) | GI50 (SNB-75): > 37.1 µM (inactive)

COc1ccccc1NC(=S)NNC(=O)c1cc(-c2ccccc2)nc2ccccc12
GI50 (Malme-3M): 4.69 µM (inactive) | GI50 (MDA-MB-231): 10 µM (inactive) | GI50 (IGROV-1): 13.9 µM (inactive) | GI50 (NCI-H226): 17.3 µM (inactive) | GI50 (HOP-62): 11.7 µM (inactive) | GI50 (U-251): 9.59 µM (inactive) | GI50 (OVCAR-5): 16.4 µM (inactive) | GI50 (SK-MEL-5): 5.81 µM (inactive) | GI50 (RPMI-8226): 6.97 µM (inactive) | GI50 (TK-10): 26.5 µM (inactive) | GI50 (ACHN): 17.7 µM (inactive) | GI50 (SF-539): 11.5 µM (inactive) | GI50 (UACC-62): 5.86 µM (inactive) | GI50 (HCT-15): 4.11 µM | GI50 (A549): 8.55 µM (inactive) | GI50 (CAKI-1): 10.7 µM (inactive) | GI50 (MOLT-4): 4.3 µM (inactive) | GI50 (SNB-75): 18.7 µM (inactive) | GI50 (SR): 1.74 µM (inactive)
